Measurements as given in PubChem BioAssay AID2060621 (Molecular Pharmacology Branch, DTP, NCI, 2025).

Test system: 324938-238-R-J1-PDC complex spheroids viability
Experiment: Anticancer human tumor 324938-238-R-J1-PDC patient-derived bladder carcinoma cell line growth inhibition [CLK]
Conditions: for IC50: curve of first compound; for viability, T/C: stronger effect = lower value
Description: A high-throughput screen of multi-cell type tumor spheroids was designed to identify active combinations of […] and targeted small molecules. Complex spheroids include a stromal component modeled by human endothelial cells (HUVEC) and fibroblasts modeled by human mesenchymal stem cells (MSCs). The concentration ranges selected for each drug and investigational agent were based upon clinically achievable concentrations if the clinical Cmax of the agent was known.
Compounds. The drugs and investigational agents: cirtuvivint (SM08502; NSC835563), CC-671 (NSC850746), vemurafenib (NSC761431), tapotoclax (NSC804041), sotorasib (NSC818433), adagrasib (NSC831453), MRTX-1133 (NSC836407), BAY2416964 (NSC825713), copanlisib (NSC816437), inavolisib (NSC800729), abemaciclib (NSC768073), osimertinib (NSC779217), entinostat (NSC756642), eltanexor (KPT-8602, NSC794443), venetoclax (NSC766270), ceralasertib (NSC777638), bortezomib (NSC756655), olaparib (NSC753686), talazoparib (NSC767125), alisertib (NSC759677), peposertib (NSC802822), gemcitabine (NSC613327), 5-fluorouracil (NSC19893), SN-38 (NSC673596), oxaliplatin (NSC266046), paclitaxel (NSC125973), and doxorubicin (NSC123127), were obtained from the National Cancer Institute (NCI) Developmental Therapeutics Program Chemical Repository. The FDA-approved anticancer drug set is available from the Developmental Therapeutics Program at https://dtp.cancer.gov/organization/dscb/obtaining/available plates.htm. […] The stock solutions were prepared in dimethyl sulfoxide (DMSO, Sigma-Aldrich, St. Louis, MO, cat. D2650), except for the platinum complexes which were prepared in saline (Quality Biological, Gaithersburg, MD, cat. 114-055-101), at 800-fold the tested concentration and stored at -70 degrees C prior to their use. All drugs and investigational agents were tested over a range starting from a high concentration at or near the clinical Cmax and decreasing in half-log increments. If the clinical Cmax for an agent had not been determined, the highest concentration tested was 10 microM.
Cell Culture. All cells were maintained in an incubator at 37 degrees C and 5% CO2 with 95% humidity. The PDC lines were cultured according to standard operating procedures established by the NCI PDMR. Briefly, all PDCs were thawed and cultured in Matrigel-coated flasks prepared with a working solution of 1X Ham's F-12 nutrient mix, without supplementation (Invitrogen, Waltham, MA, cat. 11765054), 100 U/mL penicillin-streptomycin (Invitrogen, cat. 15140122), and 2.5% Matrigel (Corning Inc., Corning, NY, cat. 354248) for the first three passages. The 947758-054-R-J2-PDC line was cultured in 6B/Colon 1A media, which includes advanced DMEM/F-12 (Thermo Fisher Scientific, cat. 12634028), 10 mM HEPES (Thermo Fisher Scientific, cat. 15630080), 1X GlutaMAX supplement (Thermo Fisher Scientific, cat. 35050061), 0.1 mg/mL primocin (InvivoGen, cat. ant-pm-2), 10% defined fetal bovine serum, heat inactivated (HyClone Laboratories Inc., cat. SH30070.03HI), 1.25 mM N-Acetyl-L-cysteine (Sigma-Aldrich, cat. A9165), 10 mM nicotinamide (Sigma-Aldrich, cat. N0636), 1X B-27 supplement (Thermo Fisher Scientific, cat. 17504044), 1X N-2 supplement (Thermo Fisher Scientific, cat. 17502048), and 10 microM Y-27632 dihydrochloride (Tocris Bioscience, cat. 1254). The 876862-298-R-J1-PDC was cultured in 6E media, which includes all 6B/Colon 1A media components plus 50% L-WRN conditioned media (ATCC, cat. CRL-3276), 50 ng/mL recombinant human EGF recombinant protein (hEGF; Thermo Fisher Scientific, cat. PHG0311), 10 ng/mL recombinant human fibroblast growth factor 10 (hGFG-10; PeproTech, cat. 100-26), 1 ng/mL recombinant human fibroblast growth factor 2 (hFGF-2; PeproTech, cat. 100-18B), and 1 µM prostaglandin E2 (PGE2; Tocris, cat. 2296). The 227483-062-R1-J1-PDC line was cultured in Panc media, containing all 6E components except hFGF-2, with the addition of 500 nM SB-431542 (Selleckchem, cat. S1067) and 10 nM gastrin (Tocris, cat. 3006). […]

[1] = second compound 0.0316 µM, first compound 0.0316 µM
[2] = second compound 0.0316 µM, first compound 0.1 µM
[3] = second compound 0.0316 µM, first compound 0.316 µM
[4] = second compound 0.0316 µM, first compound 1 µM
[5] = second compound 0.0316 µM, first compound 3.16 µM
[6] = second compound 0.0316 µM, first compound 10 µM
[7] = second compound 0.1 µM, first compound 0.0316 µM
[8] = second compound 0.1 µM, first compound 0.1 µM
[9] = second compound 0.1 µM, first compound 0.316 µM
[10] = second compound 0.1 µM, first compound 1 µM
[11] = second compound 0.1 µM, first compound 3.16 µM
[12] = second compound 0.1 µM, first compound 10 µM
[13] = second compound 0.316 µM, first compound 0.0316 µM
[14] = second compound 0.316 µM, first compound 0.1 µM
[15] = second compound 0.316 µM, first compound 0.316 µM
[16] = second compound 0.316 µM, first compound 1 µM
[17] = second compound 0.316 µM, first compound 3.16 µM
[18] = second compound 0.316 µM, first compound 10 µM
[19] = second compound 1 µM, first compound 0.0316 µM
[20] = second compound 1 µM, first compound 0.1 µM
[21] = second compound 1 µM, first compound 0.316 µM
[22] = second compound 1 µM, first compound 1 µM
[23] = second compound 1 µM, first compound 3.16 µM
[24] = second compound 1 µM, first compound 10 µM
[25] = second compound 3.16 µM, first compound 0.0316 µM
[26] = second compound 3.16 µM, first compound 0.1 µM
[27] = second compound 3.16 µM, first compound 0.316 µM
[28] = second compound 3.16 µM, first compound 1 µM
[29] = second compound 3.16 µM, first compound 3.16 µM
[30] = second compound 3.16 µM, first compound 10 µM
[31] = second compound 10 µM, first compound 0.0316 µM
[32] = second compound 10 µM, first compound 0.1 µM
[33] = second compound 10 µM, first compound 0.316 µM
[34] = second compound 10 µM, first compound 1 µM
[35] = second compound 10 µM, first compound 3.16 µM
[36] = second compound 10 µM, first compound 10 µM
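Also: viability read after seven days of drug exposure.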
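For viability, T/C in this document: 100% = DMSO vehicle control wells.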

C=C(F)C(=O)N1CCN(c2nc(OCC3CCCN3C)nc3c2CCN(c2cccc4cccc(Cl)c24)C3)CC1CC#N (centres undefined) + CN1CCN(c2cc(C(=O)Nc3cc4cc(-c5cnn(C)c5)ccc4cn3)ccn2)CC1
IC50 (second compound 0.0316 µM): 3.12 µM | IC50 (second compound 0.1 µM): 1.56 µM | IC50 (second compound 0.316 µM): < 0.0316 µM | IC50 (second compound 1 µM): < 0.0316 µM | IC50 (second compound 3.16 µM): < 0.0316 µM | IC50 (second compound 10 µM): < 0.0316 µM | viability, T/C [1]: 75.2% | viability, T/C [2]: 88.7% | viability, T/C [3]: 81.8% | viability, T/C [4]: 78.8% | viability, T/C [5]: 49.6% | viability, T/C [6]: 2.48% | viability, T/C [7]: 60.9% | viability, T/C [8]: 64% | viability, T/C [9]: 57.3% | viability, T/C [10]: 53.3% | viability, T/C [11]: 43.3% | viability, T/C [12]: 2.19% | viability, T/C [13]: 25.4% | viability, T/C [14]: 26.9% | viability, T/C [15]: 22.3% | viability, T/C [16]: 24.5% | viability, T/C [17]: 19.6% | viability, T/C [18]: 0.24% | viability, T/C [19]: 2.43% | viability, T/C [20]: 1.75% | viability, T/C [21]: 2.24% | viability, T/C [22]: 1.87% | viability, T/C [23]: 0.88% | viability, T/C [24]: 0.23% | viability, T/C [25]: 0.21% | viability, T/C [26]: 0.19% | viability, T/C [27]: 0.24% | viability, T/C [28]: 0.17% | viability, T/C [29]: 0.33% | viability, T/C [30]: 0.12% | viability, T/C [31]: 0.34% | viability, T/C [32]: 0.23% | viability, T/C [33]: 0.23% | viability, T/C [34]: 0.35% | viability, T/C [35]: 0.2% | viability, T/C [36]: 0.2%

C=CC(=O)N1CCN(c2nc(=O)n(-c3c(C)ccnc3C(C)C)c3nc(-c4c(O)cccc4F)c(F)cc23)C(C)C1 (centres undefined) + CN1CCN(c2cc(C(=O)Nc3cc4cc(-c5cnn(C)c5)ccc4cn3)ccn2)CC1
IC50 (second compound 0.0316 µM): > 10 µM | IC50 (second compound 0.1 µM): > 10 µM | IC50 (second compound 0.316 µM): < 0.0316 µM | IC50 (second compound 1 µM): < 0.0316 µM | IC50 (second compound 3.16 µM): < 0.0316 µM | IC50 (second compound 10 µM): < 0.0316 µM | viability, T/C [1]: 79.2% | viability, T/C [2]: 77.8% | viability, T/C [3]: 84.5% | viability, T/C [4]: 103% | viability, T/C [5]: 87.4% | viability, T/C [6]: 82.7% | viability, T/C [7]: 59.6% | viability, T/C [8]: 61.4% | viability, T/C [9]: 63.2% | viability, T/C [10]: 64.8% | viability, T/C [11]: 66.6% | viability, T/C [12]: 59.9% | viability, T/C [13]: 27.4% | viability, T/C [14]: 25% | viability, T/C [15]: 27.4% | viability, T/C [16]: 28.9% | viability, T/C [17]: 35.5% | viability, T/C [18]: 27.8% | viability, T/C [19]: 1.25% | viability, T/C [20]: 1.85% | viability, T/C [21]: 1.99% | viability, T/C [22]: 1.7% | viability, T/C [23]: 1.08% | viability, T/C [24]: 0.78% | viability, T/C [25]: 0.13% | viability, T/C [26]: 0.25% | viability, T/C [27]: 0.19% | viability, T/C [28]: 0.16% | viability, T/C [29]: 0.12% | viability, T/C [30]: 0.25% | viability, T/C [31]: 0.2% | viability, T/C [32]: 0.19% | viability, T/C [33]: 0.18% | viability, T/C [34]: 0.15% | viability, T/C [35]: 0.16% | viability, T/C [36]: 0.33%
